Data on three compounds can be found in US20230000888A1, “NAD-PRECURSORS AND DIETARY RESTRICTION FOR TREATING AGE RELATED MEDICAL CONDITIONS” (Leibniz-Institut für Alternsforschung - …, priority 2019, published 2023).

“Also recorded” adds a separate entry of the source. Where a name gives a salt, the structure may show the parent alone.

For one assay, the system named is female Drosophila. The following applies: 400 μM, high-fat diet; cited from earlier work.
Assay [1] deals with stress response genes in HSCs. The assay is described as follows: NanoString mRNA analysis of stress response genes in freshly isolated HSCs from dietary cohorts. It counts as in vivo, mice. The settings on record: 2 weeks, listed as NR-alone. From the text:
(§1) FIG. 13 (A-J) Young (2-3 month old) and old (22-24 month old) mice were exposed for 2 weeks to the indicated diet: ad libitum diet (AL), dietary restriction (DR=CRD), NAD-precursor supplementation (=NR), NR/DR—combination of NR plus DR.
(G-K) NanoString mRNA analysis of stress response genes in freshly-isolated HSCs from young (Y) and old (O) mice that were exposed to ad libitum (AL) or dietary restriction (DR diet for 2 weeks) of NAD-precursor treatment (NR) or a combination of NR plus DR (=NR/DR). The dotted lines represent the q-value of 0.05.
To analyze whether the NR/DR-mediated re-installment of mitochondrial metabolic plasticity in HSCs from old mice could rescue the induction of metabolic stress signals, freshly isolated HSCs from 2-week dietary cohorts were analyzed with the same NanoString assay as described above.
Measuring of RNA expression by NanoString was done according to our previous publication (Chen et al., 2019) and according to manufacturer protocol (NanoString technologies). In brief, 1×10^4 cells were lysed in 2 μL of lysis/binding solution (Applied Biosystems, 8500G14). […]

A further assay deals with HSCs (CD150+CD34−LSK). Description: Competitive transplantation of HSCs from dietary cohorts, repopulation capacity (peripheral blood chimerism). The format is in vivo. The settings on record: HSCs from young mice; 2 weeks intervention; FIG. 14A.
Another assay has as its system HSCs. Description: HSC culture with NR pre-treatment followed by 3I, number of CD48−Sca1+ cells. The following applies: NR-treated (1 mM) HSCs from old mice; 3I 6 μM each; FIG. 12E. It counts as cell-based. From the text: The NR treatment was continued on das 3 and 4. […] N=3 HSC cultures derived from 3 individual mice per group. […] Error bars depict SD.
(§2) To test the hypothesis that NAD(P) availability limits the potential of HSPCs from old mice to respond to changes in nutrient availability, freshly isolated HSCs from young and old mice were exposed to inhibitors of mitochondrial nutrient uptake.
For testing the response of HSPCs to the blocking of glycolysis or mitochondrial ATP synthesis, 2-DG (Sigma, D8375) or oligomycin A (Sigma, 75351) were used. For the inhibition of nutrient uptake into mitochondria, three inhibitors (3I) were used. BPTES (Sigma, SML0601) blocks […] uptake, Etomoxir (Sigma E1905) blocks Fatty acids uptake, and UK5099 (Sigma PZ0160) blocks pyruvate uptake. The final concentration of each inhibitor in the culture medium is 6 μM. Same amount of DMSO was used in the medium as control. For determination of cell number after NR treatment 500 HSCs from young (2-3 months) and old (22-24 months) were pre-incubated either with 1 mM NR (provided by Prof. Johan Auwerx Lab) or DMSO as control for 2 days followed by 2 days treatment with the inhibitors (BPTES, Etomoxir and UK5099, 6 μM each) or same amount of DMSO as control. The cells were then analyzed by BD LSR fortessa.

The test system of assay [2] is stress response genes in MPPs (CD34+Flt3−LSK). The assay is described as follows: NanoString analysis of stress response genes in MPPs pre-treated in vitro with NR followed by 3I or vehicle. The format is cell-based, mice. Here is the method: (C,D) NanoString analysis on the expression of stress response genes was carried out on 10,000 MPPs (CD34^+Flt3^−LSK) from young (3-4 months, n=4) and old mice (22-24 months, n=4). MPPs were pre-treated in culture with 1 mM NR or DMSO (Con) for 12h followed by treatment with 31 or Vehicle (Veh: 0.4% DMSO) for 12h under continuation of NR or Veh treatment. (C,D) Volcano plots for the NanoString analysis.
(G,H) NanoString analysis on the expression of stress response genes was carried out on 10,000 MPPs (CD34^+Flt3^−LSK) from young (3-4 months, n=4) and old mice (22-24 months, n=4). MPPs were pre-treated in vitro with 1 mM NR or DMSO (Con) for 12h followed by treatment with 31 or Vehicle (Veh: 0.4% DMSO) for 12h. The NR treatment was continued for the time window of 12-24h. (G, H) Volcano plots on the NanoString analysis of stress response genes.
as §2
Measuring of RNA expression by NanoString was done according to our previous publication (Chen et al., 2019) and according to manufacturer protocol (NanoString technologies). In brief, 1×10^4 cells were lysed in 2 μL of lysis/binding solution (Applied Biosystems, 8500G14). The cell lysate was then used for hybridization reaction as following: 2 μL of cell lysate was mixed with 5 μL of nCounter hybridization buffer (NanoString), 2 μL of Core Tagset, 2 μL of extension Tagset, 0.5 μL of […] Probe A working pool, 0.5 μL of […] probe A extension Pool, 0.5 μL of 3 nm Probe B working pool, and 0.5 μL of 3 nM Probe B extension pool (from IDT technologies). 2 μL of Nuclease-free water was added to each reaction to reach a final volume of 15 μL. The reaction mixture was prepared in Strip tubes (from NanoString technologies). Then it was incubated at 67° C. using thermal cycler (Masterycler from Eppendorf) for 16 h. Afterward, the Nanostring chemistry was processed automatically using nCounter prep-station 5s (NanoString technologies) according to manufacturer protocol. Directly after the run, the nCounter Cartridge was loaded into nCounter digital analyzer 5s (NanoString technologies). For NanoString analysis on young and old mice exposed to DR or AL food, freshly FACS-Sorted MPPs (CD34^+Flt3^− LSK) were used. […] Cells from NR treatment and DMSO were divided into 2 halves and further treated with 3I (6 μM each) or DMSO as control. The cells were harvested for NanoString analysis as described above. Data analysis was done after background correction using nSolver advanced analysis software (v.4) and (R software v 3.3.2.). The following housekeeping genes were used for normalization: ActB, B2M, Gapdh, Gusb, Hprt, PGK1, Polr1b, Polr2a, Ppia, Rpl19, Sdha, and Tbp. Heatmaps and volcano plots was done using GraphPad prism software version 8.

The next assay relates to old mice. The settings on record: previous studies; cited from earlier work.
Assay [3] concerns 22-24 months old female mice. Description: Lifespan (Kaplan Meier survival) of old mice under long-term dietary treatments. The format is in vivo.
Protocol: (B) Kaplan Meier survival analysis in cohorts of mice that were exposed to DR-alone, NR-alone, or NR/DR co-treatment compared to AL-feeding. Dietary interventions were started at the age of 22-24 months and continued over lifetime. […] P-values were calculated using Mantel-Cox test. The p-values that are shown next to the intervention naming refer to the comparison of the intervention to the AL-diet group.
To test effects of these dietary intervention on organism lifespan, 4 cohorts of 22-24 months old female mice (n=14-15 mice per group) were exposed to long-term treatments (until the end of life or the occurrence of humane endpoints).
The test system of assay [4] is CMPs. The assay is described as follows: Respirometry (OCR) of freshly isolated CMPs from mice fed NR, DR or NR/DR. It counts as in vivo. The following applies: 2 weeks.
Excerpt: as §1
(A-C) Respirometry analysis of the OCR of freshly-isolated CMPs in: (A) young and (B) old mice; (C) Quantification of OCR at basal level of the indicated groups as measured in (A,B, before oligomycin-application, marked by 0). N=4-6 mice per group. The Data were normally distributed (Shapiro-Wilk test) after log transformation. Error bars represent SD. P-values were calculated on average data of 4 time points using 2-way ANOVA with Tukey's multiple comparisons test on log-transformed data.
To experimentally test whether mitochondrial enhancement could re-empower DR (=CRD) in old mice, young and old mice were exposed to NAD+ supplementation by feeding of nicotinamide riboside (NR). In addition, the mice were exposed for 2 weeks to DR (=CRD), starting 1 week after NR pre-feeding, or continuous AL feeding.

Assay [5] deals with CMPs. Description: Seahorse basal oxygen consumption rate after NR pre-treatment followed by 3I. The following applies: FIG. 12F. The format is cell-based, mice. The protocol:
(F) Basal oxygen consumption rate in CMPs from young (3-5 months, n=4) and old mice (22-24 months, n=4). Cells were either pretreated with 1 mM […] (NR) or DMSO (Con) for 12 h. This was followed by treatment for 12h in vitro to combination of 3 inhibitors of mitochondrial nutrient uptake (by BPTES=6 uM, Etomoxir=6 uM, UK5099=6 uM) or DMSO as control. The data were not normally distributed (Shapiro-Wilk test) and the Mann-Whitney test was used for the calculation of p-values.
as §2
For CMP and GMP 80,000 cells were used. For MPP 60,000 cells were used.

Assay [6] deals with CMPs. Description: OCR of CMPs in glucose-restricted medium from old mice fed CRMs with or without NAD-precursor. It counts as in vivo. The following applies: old mice (22-24 months), 2 weeks, glucose depletion, FIG. 15.
Protocol: FIG. 15—Old (22-24 months old) mice were exposed for 2 weeks to the indicated diet: ad libitum (AL), Metformin (met), NAD-precursor (NR), NRM—combination of NR plus Metformin. Curves show respirometry analysis of the OCR of freshly isolated CMPs. The OCRs were continuously measured for 12h in freshly isolated CMPs grown in glucose-restricted medium (1 mM=R).
To test whether NAD precursor supplementation would cooperate with specific CRMs that mimic a certain sub-pathway induced by CRD, different classes of CRMs were employed. We tested the combined effects of NAD supplementation with • (a) Metformin—a CRM, which induces mitochondrial stress • (b) Pterostilbene—a CRM which induces Sirtuin-dependent stress responses including autophagy • (c) Spermidine—a CRM, which induces autophagy (ad ownstream target of sirtuins (see above)
Old mice (22-24 months) were fed with CRMs (a-c) with or without combination with NAD-precursor supplementation for 2 weeks before analysis. Freshly isolated hematopoietic cells (CMPs) were tested for a rescue in responsiveness to activate mitochondria in response to glucose depletion—a marker of metabolic improvement induced by CRD in young mice or by a combination of NAD precursor supplementation plus CRD in old mice. […]
The mark [7] stands for this setting: Y.Con + 3I versus O.NR + 3I, MPPs, 12 h pre-treatment with NR.

Turning to `Oc1ccc(C=Cc2cc(O)cc(O)c2)cc1` [resveratrol, Resveratrol], the “extension of the lifespan” value with female Drosophila is 10%-15%.
In the case of `NC(=O)c1ccc[n+]([C@@H]2O[C@H](CO)[C@@H](O)[C@H]2O)c1` [NR, Nicotinamide riboside], the “induction of metabolic stress signals (stress response genes)” value in assay [1] (HSCs from young mice, FIG. 13G) is “induction of health-promoting stress response genes in young mice; also recorded: induced metabolic stress signals”. In addition, in [1] (HSCs of old mice, FIG. 13I,K), the “induction of metabolic stress signaling (stress response genes)” value is “neither of the single treatments, NR-alone (FIG. 13I) or DR-alone (FIG. 13J) was able to induce metabolic stress signaling”. The “repopulation capacity of HSCs” value with HSCs (CD150+CD34−LSK) was “increased the repopulation capacity”. Also, the “response to 3I-treatment: cell proliferation” value in the assay on HSCs was “suppression of cell proliferation”. For the same compound, in assay [2] (setting [7]), the “IDH1-mRNA LogZFC” value is reported as −2.62, the “Ino1-mRNA LogZFC” value is given as −1.78, the “Myh9-mRNA LogZFC” value is listed as −2.45 and the “NRas-mRNA LogZFC” value is −2.16. In [2] (setting [7]), the “Pds5A-mRNA LogZFC” value was −3.08, the “atp5a1-mRNA LogZFC” value came out at 1.11 and the “unspliced XBP1-mRNA LogZFC” value amounted to 2.56. Also, the “changes in the transcription of stress response genes in old vs. young cells” value in assay [2] (cells exposed to 3I-treatment, 1 mM NR, FIG. 12H) is reported as “reverted changes in the transcription of stress response genes”. In addition, in assay [2] (old vs. young cells not exposed to 3I-treatment, 1 mM NR, FIG. 11C-E), the “pre-existing, age-related changes in transcription of stress response genes” value is reported as “no significant effects”. Moreover, the “increase in lifespan when applied to old mice” value in the assay on old mice is 6.9%. The “increase in median life expectancy compared to AL” value in [3] (late-life treatment of old mice, this study) stood at 10%. In addition, in assay [3] (treatment started at 22-24 months, continued over lifetime, FIG. 14B), the “lifespan compared to AL-fed control mice” value is “slight increases in lifespan”. Besides, the “mitochondrial respiration compared to AL-fed mice” value in the assay with CMPs [4] (old mice, FIG. 13B,C) is “neither of the single treatments was sufficient to induce mitochondrial respiration”. Besides, the “mitochondrial respiration compared to AL-fed mice” value with CMPs [4] (young mice, FIG. 13A,C) is listed as “significant increases in mitochondrial respiration”. In addition, the “response to 3I-treatment: oxidative metabolism” value with CMPs [5] (NR-treated (1 mM) cells from old mice, 3I 6 uM each) was “reduction of oxidative metabolism”. Moreover, in the assay with CMPs [5] (cells from old mice, 1 mM NR), the “oxidative metabolism (basal oxygen consumption rate)” value is recorded as “rescued oxidative metabolism to a similar level as observed in HSCs from young mice”.
Turning to `CN(C)C(=N)N=C(N)N` [metformin, Metformin-Hydrochlorid, reference compound], the “synergistic effects of NAD precursor supplementation combined with the CRM on inducing mitochondria activity (OCR)” value with CMPs [6] was “synergistic effects on inducing mitochondria activity”.
